{"source": "ChEMBL document CHEMBL1150648", "about": "“Coproverdine, a novel, cytotoxic marine alkaloid from a new zealand ascidian” (J Nat Prod, 2002)", "format_in_all_cases": "functional, cell-based", "key": {"P388": {"system": "P388", "assay": "Cytotoxicity against mouse P388 cells"}, "A549": {"system": "A549", "assay": "Cytotoxicity against human A549 cells"}, "HT-29": {"system": "HT-29", "assay": "Cytotoxicity against human HT-29 cells"}, "SK-MEL-28": {"system": "SK-MEL-28", "assay": "Cytotoxicity against human SK-MEL-28 cells"}, "DU-145": {"system": "DU-145", "assay": "Cytotoxicity against human DU145 cells"}}, "data": [{"smiles": "COC(=O)c1cccc2c3c(n(O)c12)C(O)(C=O)C=CC3=O", "note": "(stereo not given) [COPROVERDINE]", "values": [{"measurement": "IC50", "setting": "P388", "value": 1600, "unit": "nM"}, {"measurement": "IC50", "setting": "A549", "value": 300, "unit": "nM"}, {"measurement": "IC50", "setting": "HT-29", "value": 300, "unit": "nM"}, {"measurement": "IC50", "setting": "SK-MEL-28", "value": 300, "unit": "nM"}, {"measurement": "IC50", "setting": "DU-145", "value": 300, "unit": "nM"}]}]}
